According to ChEMBL document CHEMBL5674860, “Optimized Dual-Glo Assay to identify co-culture-induced drug vulnerabilities in 3D CRC models” (2024):

Experiments:
Type in all cases: functional, Homo sapiens
Parameters in all cases: dose or concentration left out as unconfirmed
Colon cancer organoid [1] = assay: Optimized Dual-Glo assay to identify co-culture induced drug vulnerabilities using donated chemical probes and chemogenomics kinase set in O20 CRC organoid and F20 CAF mono and co-culture. […] Cell viability is reported both mono and co-culture models.
Colon cancer organoid [2] = assay: Optimized Dual-Glo assay to identify co-culture induced drug vulnerabilities using donated chemical probes and chemogenomics kinase set in O06 CRC organoid and F06 CAF mono and co-culture. […] Cell viability is reported both mono and co-culture models.
Colon cancer organoid [3] = assay: Optimized Dual-Glo assay to identify co-culture induced drug vulnerabilities using donated chemical probes and chemogenomics kinase set in O14 CRC organoid and F14 CAF mono and co-culture. […] Cell viability is reported both mono and co-culture models.
[4] = Culture type Co-Culture, Transduced with Lucferase2-P2A-EGFP lentivirus
[5] = Culture type Co-Culture, Transduced with Renilla-dsRed lentivirus
[6] = Culture type Mono-Culture, Transduced with Lucferase2-P2A-EGFP lentivirus
[7] = Culture type Mono-Culture, Transduced with Renilla-dsRed lentivirus

Row | SMILES | Cell Viability (Colon cancer organoid [1]; [4]) [%] | Cell Viability (Colon cancer organoid [1]; [5]) [%] | Cell Viability (Colon cancer organoid [1]; [6]) [%] | Cell Viability (Colon cancer organoid [1]; [7]) [%] | Cell Viability (Colon cancer organoid [2]; [4]) [%] | Cell Viability (Colon cancer organoid [2]; [5]) [%] | Cell Viability (Colon cancer organoid [2]; [6]) [%] | Cell Viability (Colon cancer organoid [2]; [7]) [%] | Cell Viability (Colon cancer organoid [3]; [4]) [%] | Cell Viability (Colon cancer organoid [3]; [5]) [%] | Cell Viability (Colon cancer organoid [3]; [6]) [%] | Cell Viability (Colon cancer organoid [3]; [7]) [%]
1 | C[C@H](c1ccc(F)cc1)N(Cc1ccc(Cl)c(C(=O)O)c1)C(=O)c1cnc2ccccc2c1 [PF-05257137] | 147.232 | 103.742 | 109.057 | 106.822 | 116.801 | 128.047 | 124.519 | 88.8687 | 77.6621 | 111.229 | 120.37 | 101.269
2 | COc1cc(C(=O)O)ncc1C#Cc1ccccc1NS(=O)(=O)c1cccc2c(N(C)C)ccnc12 [MSC-0516] | 89.6649 | 109.372 | 112.972 | 85.9962 | 46.2412 | 64.6541 | 39.7973 | 95.1501 | 94.2911 | 93.5429 | 114.942 | 88.0348
3 | C[C@H]1CC(=O)Nc2cc(C(=O)NCCC3CC3)ccc2N1C(=O)N1CC2CC2C1 (stereo partly specified) | 105.905 | 112.87 | 104.527 | 89.0255 | 115.835 | 132.849 | 119.799 | 120.051 | 72.2289 | 101.41 | 80.5063 | 95.2313
4 | CCNC(=O)c1cc2c(-c3cc(C(C)(C)O)ccc3Oc3c(C)cc(F)cc3C)cn(C)c(=O)c2[nH]1 [ABBV-744] | 58.1744 | 215.224 | 60.9117 | 122.12 | 91.6049 | 287.135 | 45.0108 | 272.327 | 55.2801 | 319.971 | 42.072 | 212.265
5 | c1ccc2oc(-c3csc(C4CCN(Cc5nc6ncccc6[nH]5)CC4)n3)cc2c1 | 55.8408 | 105.216 | 98.8646 | 99.5308 | 118.221 | 124.83 | 91.0093 | 102.554 | 119.834 | 111.13 | 91.6979 | 94.4275
6 | O=C1CCc2cc(Nc3cc(OC4CCOCC4)c([N+](=O)[O-])cc3Cl)ccc2N1 | 150.133 | 114.972 | 136.194 | 114.49 | 112.978 | 126.115 | 116.283 | 106.249 | 95.0687 | 106.674 | 142.925 | 117.869
7 | CC(C)Oc1ccc(-c2c[nH]cc2CN(C)CCN)cc1 | 47.7555 | 252.195 | 49.3092 | 91.7276 | 47.5822 | 178.793 | 30.9197 | 89.9891 | 38.1359 | 167.261 | 29.2667 | 88.3814
8 | CCC(F)(F)c1cc(N2CCC(S(C)(=O)=O)CC2)nc2sc(C(N)=O)c(N)c12 [BI-605906] | 178.631 | 81.0914 | 102.635 | 91.2338 | 93.6384 | 92.3898 | 93.147 | 102.109 | 108.411 | 90.1855 | 95.9322 | 83.0517
9 | CC(C)NC(=O)N1CC[C@H](NC2=Nc3cc(F)ccc3N(CC(F)F)c3ccc(Cl)cc32)C1 | 55.1322 | 142.836 | 58.5304 | 89.934 | 86.0472 | 89.4587 | 81.5326 | 94.1375 | 105.089 | 97.5374 | 82.3325 | 100.505
10 | CCCCNNC(=O)c1ccc(Br)cc1 | 131.228 | 114.511 | 127.902 | 88.6471 | 113.204 | 110.004 | 101.234 | 117.719 | 82.2147 | 109.67 | 123.977 | 94.4376
11 | CCNC(=O)c1cc2c(N3CCOCC3C)ccnc2[nH]1 (stereo unspecified) | 144.452 | 100.256 | 103.659 | 101.624 | 131.632 | 146.353 | 109.161 | 91.669 | 86.1024 | 100.89 | 87.7409 | 81.9796
12 | CCC(=N\O)/C(C)=C/c1ccc(F)c(C)c1 [A-226] | 93.31 | 115.263 | 126.956 | 103.634 | 127.798 | 151.161 | 120.98 | 100.434 | 99.1206 | 103.384 | 109.979 | 105.569
13 | Cn1c(C2(NC(=O)c3ccc(NCC4CCCCC4)nc3)CCC2)nc2ccc(/C=C/C(=O)O)cc21 [BI 7656] | 93.1126 | 134.723 | 113.339 | 113.787 | 130.07 | 105.71 | 133.812 | 120.577 | 115.178 | 112.206 | 113.679 | 103.836
14 | CC1(C)C(N)=Nc2cc(OCCCCN3Cc4ccc(OCc5cn(CC(=O)N6CCC(CCN7CCCC7)CC6)nn5)cc4C3)c(OCC3CC3)cc21 | 70.4635 | 125.652 | 114.565 | 111.957 | 65.2251 | 114.368 | 80.2418 | 105.711 | 75.997 | 107.884 | 116.341 | 106.753
15 | CC1(C)C(N)=Nc2cc(OCCCN3Cc4ccc(OCCc5cn(CC(=O)N6CCC(CCN7CCCC7)CC6)nn5)cc4C3)c(OCC3CC3)cc21 | 94.7334 | 161.052 | 109.897 | 111.947 | 85.8179 | 109.54 | 61.6099 | 146.021 | 83.4014 | 129.005 | 107.567 | 119.85
16 | COc1cc(-c2cn([C@H]3CCc4c(F)cccc4N(CC(F)(F)F)C3=O)nn2)ccc1-n1cnc(C)c1 | 119.382 | 109.286 | 102.589 | 90.6954 | 117.399 | 118.336 | 87.9333 | 111.054 | 75.4426 | 112.422 | 84.8132 | 97.4006
17 | CNC(=O)c1ccc(Nc2ncc(C(F)(F)F)c(NCc3nccnc3N(C)S(C)(=O)=O)n2)cc1 [DEFACTINIB] | 57.0475 | 79.7534 | 66.5234 | 63.7293 | 127.858 | 116.047 | 102.967 | 60.766 | 83.442 | 104.135 | 42.8527 | 104.257
18 | O=C1[C@H](Cc2ccc(O)cc2)N2C(=O)CCN(C(=O)NCc3ccccc3)[C@H]2CN1Cc1cccc2ccccc12 | 89.6614 | 144.616 | 131.376 | 33.7268 | 79.2211 | 124.216 | 100.059 | 61.7438 | 20.45 | 145.967 | 17.2238 | 77.2237
